Measurements taken from article PMC11078990, “Identification and characterization of small molecule inhibitors of the LINE-1 retrotransposon endonuclease” (Nature Communications, 2024).
“And” between values parts separate entries of the source, which are not always exact repeats. Equal entries are not always repeated.

Columns and labels:
[1] = biological target: L1 EN (LINE-1 retrotransposon endonuclease domain) (Homo sapiens, UniProt O00370, N5T); experiment: Fluorescent oligonucleotide EN nicking activity assay; assay type: biochemical
Chain of L1 EN (LINE-1 retrotransposon endonuclease domain) (O00370 1-239 N5T): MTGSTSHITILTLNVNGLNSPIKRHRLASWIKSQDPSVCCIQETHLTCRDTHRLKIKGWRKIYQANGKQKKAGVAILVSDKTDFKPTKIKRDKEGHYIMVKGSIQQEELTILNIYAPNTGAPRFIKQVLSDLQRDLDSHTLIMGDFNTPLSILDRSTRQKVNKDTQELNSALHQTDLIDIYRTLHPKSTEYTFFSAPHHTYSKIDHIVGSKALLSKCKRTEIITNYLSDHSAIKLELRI

L1 retrotransposition = experiment: HeLa dual-luciferase L1 retrotransposition assay; assay type: cell-based, human
[2] = system: DNA fragmentation (comet tail length) in HeLa Tet-On cells expressing EN domain; experiment: Neutral comet assay, EN domain-only constructs; assay type: cell-based, human
HeLa Tet-On cells = settings: human
APE1 = biological target: T1, APE1 (Homo sapiens, UniProt P27695); experiment: APE1 fluorescent oligonucleotide activity assay (abasic site substrate); assay type: biochemical; settings: for activity at 25 µM: read-out: APE1 activity (%)
T1 construct: purchased New England Biolabs (NEB) M0282S

[3] = system: substrate oligonucleotide used in the EN activity assay; assay type: binding; design: key to Binding Detected? (Y/N): Binding Detected? (Y/N); Binding Detected? (Y/N)
[4] = read-out: EN activity, percent of no inhibitor control

C/C(=N\Nc1ccc([N+](=O)[O-])cc1[N+](=O)[O-])c1ccc(-n2nncc2C(C)(C)C)cc1 [AD7]
EN activity, percent of no inhibitor control ([1]; 5 µM): 101.994% and 98.1742% and 77.1828%
EN activity, percent of no inhibitor control ([1]; 25 µM): 96.2152% and 94.2464%
EN activity, percent of no inhibitor control ([1]; 50 µM): 105.792% and 87.7855%
EN activity, percent of no inhibitor control ([1]; 100 µM): 94.7448% and 86.2812%
EN activity, percent of no inhibitor control ([1]; 250 µM): 48.1744% and 80.4178% and 71.8348%
EN activity, percent of no inhibitor control ([1]; 500 µM): 47.3691%
EN activity, percent of no inhibitor control ([1]; 750 µM): 44.5063% and 42.7569%
EN activity, percent of no inhibitor control ([1]; 1000 µM): 33.3657% and 34.4723%
EN activity, percent of no inhibitor control ([1]; 1500 µM): 8.772% and 6.335%
remaining activity at 25 µM [1, 4]: 86.8%
remaining activity at 50 µM [1, 4]: 88.2%
remaining activity at 100 µM [1, 4]: 97.9%
remaining activity at 500 µM [1, 4]: 61.3%
remaining activity at 750 µM [1, 4]: 34.4%
remaining activity at 1000 µM [1, 4]: 39.3%
remaining activity at 1500 µM [1, 4]: 7.91%
Effect on L1 retrotransposition (L1 retrotransposition): some activity in the retrotransposition assay
Luciferase (retrotransposition), average (L1 retrotransposition): 2.314
Luciferase (retrotransposition), replicates (L1 retrotransposition): 2.087 and 1.842 and 2.6465 and 2.682
Nuclei comet tail length, average (WT = 1) [2]: 0.8142
PrestoBlue (viability), average (HeLa Tet-On cells): 16.01
APE1 percent activity, Replicate 1 (APE1): 123.061%
APE1 percent activity, Replicate 2 (APE1): 113.794%
APE1 percent activity, Replicate 3 (APE1): 119.588%
APE1 percent activity, average (APE1): 118.815%
Percent APE1 activity, average (APE1): 103.1%
Percent APE1 activity, replicates (APE1): 105.066% and 99.3868% and 104.87%
activity at 25 µM (APE1): 119 ± 4.7%
Binding Detected? (Y/N) [3]: N

O=C(CCCCCCCCCCC(=O)Nc1cccc([N+](=O)[O-])c1)Nc1cccc([N+](=O)[O-])c1 [AD11]
EN activity, percent of no inhibitor control ([1]; 0.1 µM): 84.764% and 74.2098%
EN activity, percent of no inhibitor control ([1]; 0.5 µM): 87.7394% and 79.0744%
EN activity, percent of no inhibitor control ([1]; 1 µM): 78.4622% and 83.3471%
EN activity, percent of no inhibitor control ([1]; 5 µM): 48.2874% and 49.6964%
EN activity, percent of no inhibitor control ([1]; 25 µM): 8.361% and 7.932%
EN activity, percent of no inhibitor control ([1]; 50 µM): 2.144% and 3.212%
EN activity, percent of no inhibitor control ([1]; 100 µM): 0.8407% and 0.78% and 1.633%
remaining activity at 0.1 µM [1, 4]: 87.2%
remaining activity at 0.5 µM [1, 4]: 73.3%
remaining activity at 1 µM [1, 4]: 78.1%
remaining activity at 5 µM [1, 4]: 54.9%
remaining activity at 25 µM [1, 4]: 6.58%
remaining activity at 50 µM [1, 4]: 2.44%
remaining activity at […] [1, 4]: 65.8%
L1 retrotransposition, average (L1 retrotransposition): 2.364 and 2.4307 and 2.013 and 1.968 and 2.0024 and 1.896 and 1.695 and 1.484
Luciferase (retrotransposition), average (L1 retrotransposition): 3.993
Luciferase (retrotransposition), replicates (L1 retrotransposition): 4.575 and 4.225 and 3.621 and 3.549
Nuclei comet tail length, average (WT = 1) [2]: 0.8117
PrestoBlue (viability), average (HeLa Tet-On cells): 15.84
APE1 percent activity, Replicate 1 (APE1): 77.2032%
APE1 percent activity, Replicate 2 (APE1): 89.204%
APE1 percent activity, Replicate 3 (APE1): 71.7475%
APE1 percent activity, average (APE1): 79.3849%
activity at 25 µM (APE1): 79.4 ± 8.9%
Binding Detected? (Y/N) [3]: N
